# Assay results published in ChEMBL document CHEMBL1201862, “PubChem BioAssay data set” (2004).
# Active and inactive are the calls of the source.
# Assays:
# [1] = molecular target: T1, Nuclear receptor subfamily 0 group B member 1 (Homo sapiens, UniProt P51843); format: functional, cell-based;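 note: HEK293T cells transfected with SF-1 and DAX-1 plus StAR promoter luciferase reporter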
# T1 sequence (P51843 whole entry): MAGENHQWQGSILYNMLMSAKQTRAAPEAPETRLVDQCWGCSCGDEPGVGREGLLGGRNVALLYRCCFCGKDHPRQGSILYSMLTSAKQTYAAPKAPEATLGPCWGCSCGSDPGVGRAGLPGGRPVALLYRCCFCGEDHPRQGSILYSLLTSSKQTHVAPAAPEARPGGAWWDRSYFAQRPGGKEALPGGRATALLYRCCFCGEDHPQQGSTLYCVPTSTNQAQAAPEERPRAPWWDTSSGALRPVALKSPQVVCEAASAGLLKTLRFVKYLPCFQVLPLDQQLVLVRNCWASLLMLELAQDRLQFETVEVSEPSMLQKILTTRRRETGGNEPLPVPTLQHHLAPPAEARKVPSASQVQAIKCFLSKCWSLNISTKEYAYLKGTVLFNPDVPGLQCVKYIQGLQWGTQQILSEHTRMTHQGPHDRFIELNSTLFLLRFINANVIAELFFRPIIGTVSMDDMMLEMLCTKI
# [2] = LGR2 antagonists, dose response, cell-based, HEK293, CRE-luciferase reporter, cherry pick, set 2 (AID 743343); format: functional;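 note: transfected cells were stimulated with diluted bursicon conditioned medium after compound addition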
# [3] = MC4R antagonists, dose response, counter-screen for LGR2 antagonist project, cell-based, plate reader, cherry pick (AID 743444); format: functional;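 note: transfected HEK 293 cells stimulated with alpha-MSH peptide; potency of inhibitors of the alpha-MSH evoked signal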
# cells = format: functional, cell-based
# [4] = A549 cell cytotoxicity, dose response, cytotoxicity control, plate reader, cherry-pick, antagonist series (AID 743412); format: functional, cell-based
# HEK293 = test: inhibitors of LMP1-driven NF-kB reporter, dose response, cell-based, HEK293, luciferase, cherry-pick (AID 588343); format: functional; settings: Homo sapiens
# [5] = molecular target: T2, Sentrin-specific protease 7 (Homo sapiens, UniProt Q9BQF6); format: functional;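 note: Luminescence-based dose-response confirmation of ultra-high-throughput screening hits, measuring inhibition of SENP7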
# T2 sequence (Q9BQF6 whole entry): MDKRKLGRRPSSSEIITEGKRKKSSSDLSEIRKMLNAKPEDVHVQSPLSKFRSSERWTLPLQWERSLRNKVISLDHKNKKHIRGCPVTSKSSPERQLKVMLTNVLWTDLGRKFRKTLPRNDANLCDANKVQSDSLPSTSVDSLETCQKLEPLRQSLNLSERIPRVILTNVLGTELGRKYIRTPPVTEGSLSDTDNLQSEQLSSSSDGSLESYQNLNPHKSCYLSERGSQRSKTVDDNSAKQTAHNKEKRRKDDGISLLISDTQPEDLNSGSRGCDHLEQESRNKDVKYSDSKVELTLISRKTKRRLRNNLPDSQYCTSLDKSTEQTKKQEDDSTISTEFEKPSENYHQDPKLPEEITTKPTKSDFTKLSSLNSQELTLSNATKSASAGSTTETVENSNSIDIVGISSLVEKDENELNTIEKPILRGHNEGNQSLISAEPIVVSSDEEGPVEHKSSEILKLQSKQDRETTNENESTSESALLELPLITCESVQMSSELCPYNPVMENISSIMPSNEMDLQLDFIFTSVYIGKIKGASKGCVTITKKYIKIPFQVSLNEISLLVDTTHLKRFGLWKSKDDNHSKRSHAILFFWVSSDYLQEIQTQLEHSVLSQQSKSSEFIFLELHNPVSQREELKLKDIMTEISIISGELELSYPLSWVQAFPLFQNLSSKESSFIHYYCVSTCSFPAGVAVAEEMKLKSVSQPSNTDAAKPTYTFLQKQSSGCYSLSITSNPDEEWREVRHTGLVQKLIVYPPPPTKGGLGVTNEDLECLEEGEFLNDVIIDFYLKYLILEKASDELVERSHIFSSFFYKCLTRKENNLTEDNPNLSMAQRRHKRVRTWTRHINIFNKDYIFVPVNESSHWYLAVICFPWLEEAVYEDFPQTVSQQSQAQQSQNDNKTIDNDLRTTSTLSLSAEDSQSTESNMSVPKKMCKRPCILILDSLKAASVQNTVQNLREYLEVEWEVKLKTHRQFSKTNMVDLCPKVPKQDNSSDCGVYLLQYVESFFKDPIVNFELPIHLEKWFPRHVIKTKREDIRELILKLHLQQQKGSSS
# Caspase-3 = molecular target: T3, Caspase-3 (Homo sapiens, UniProt P42574); format: functional;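 note: Dose-response selectivity test against caspase-3 for candidate inhibitors of sentrin-specific proteases (SENPs)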
# T3 sequence (P42574 whole entry): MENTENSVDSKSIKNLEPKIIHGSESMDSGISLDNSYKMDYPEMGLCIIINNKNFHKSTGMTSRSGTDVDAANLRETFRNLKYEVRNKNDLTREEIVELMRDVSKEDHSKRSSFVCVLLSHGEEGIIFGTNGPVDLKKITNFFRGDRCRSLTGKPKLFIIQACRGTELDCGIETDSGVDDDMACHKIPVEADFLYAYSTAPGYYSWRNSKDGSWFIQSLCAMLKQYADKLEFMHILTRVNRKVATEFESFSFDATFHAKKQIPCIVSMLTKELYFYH
# [6] = molecular target: T4, Sentrin-specific protease 8 (Homo sapiens, UniProt Q96LD8); format: functional;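 note: luminescence read-out of SENP8 inhibition, dose-response confirmation following an ultra-high-throughput screen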
# T4 sequence (Q96LD8 whole entry): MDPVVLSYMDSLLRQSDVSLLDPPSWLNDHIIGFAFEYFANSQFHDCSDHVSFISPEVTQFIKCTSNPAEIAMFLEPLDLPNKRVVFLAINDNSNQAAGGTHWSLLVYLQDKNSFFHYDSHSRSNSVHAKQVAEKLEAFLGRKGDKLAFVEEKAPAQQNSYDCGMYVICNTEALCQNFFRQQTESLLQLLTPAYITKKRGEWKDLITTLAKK
# [7] = molecular target: T5, Sentrin-specific protease 6 (Homo sapiens, UniProt Q9GZR1); format: functional;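 note: Luminescence-based dose-response confirmatory assay of SENP6 inhibition, following up an ultra-high-throughput screen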
# T5 sequence (Q9GZR1 whole entry): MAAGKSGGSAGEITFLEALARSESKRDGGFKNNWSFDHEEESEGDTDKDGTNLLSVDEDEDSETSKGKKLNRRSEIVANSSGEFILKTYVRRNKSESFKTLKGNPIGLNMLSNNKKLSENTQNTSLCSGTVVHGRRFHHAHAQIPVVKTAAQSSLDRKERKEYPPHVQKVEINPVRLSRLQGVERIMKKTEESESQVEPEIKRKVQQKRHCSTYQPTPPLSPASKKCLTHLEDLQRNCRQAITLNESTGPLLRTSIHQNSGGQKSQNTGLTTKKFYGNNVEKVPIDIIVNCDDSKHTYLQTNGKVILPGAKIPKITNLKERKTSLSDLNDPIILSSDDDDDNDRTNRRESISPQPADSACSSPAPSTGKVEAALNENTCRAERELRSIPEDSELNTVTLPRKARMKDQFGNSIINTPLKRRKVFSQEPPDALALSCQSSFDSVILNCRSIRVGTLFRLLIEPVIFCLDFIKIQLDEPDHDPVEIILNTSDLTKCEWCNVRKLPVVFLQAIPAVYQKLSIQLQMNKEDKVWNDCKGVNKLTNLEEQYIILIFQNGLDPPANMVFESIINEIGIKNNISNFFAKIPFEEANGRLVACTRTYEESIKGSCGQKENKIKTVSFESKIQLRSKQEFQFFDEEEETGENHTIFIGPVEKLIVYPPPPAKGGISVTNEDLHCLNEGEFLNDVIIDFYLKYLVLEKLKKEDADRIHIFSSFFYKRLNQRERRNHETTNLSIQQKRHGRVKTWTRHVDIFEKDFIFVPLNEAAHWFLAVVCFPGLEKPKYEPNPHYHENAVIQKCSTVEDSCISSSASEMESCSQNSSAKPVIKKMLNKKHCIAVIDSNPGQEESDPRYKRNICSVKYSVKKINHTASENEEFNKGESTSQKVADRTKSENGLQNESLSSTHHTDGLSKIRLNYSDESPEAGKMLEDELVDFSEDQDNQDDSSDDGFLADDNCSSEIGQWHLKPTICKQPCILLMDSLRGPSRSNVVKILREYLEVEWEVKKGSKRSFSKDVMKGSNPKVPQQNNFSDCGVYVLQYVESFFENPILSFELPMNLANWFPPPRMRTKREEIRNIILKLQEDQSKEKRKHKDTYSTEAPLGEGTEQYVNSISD
# [8] = molecular target: T6, Microphthalmia-associated transcription factor (Homo sapiens, UniProt O75030); test: TRPM1 promoter luciferase signal decrease, dose response, MITF inhibitor project, cell-based, SK-MEL-5, cherry-picked, set 3 (AID 493073); format: functional
# T6 sequence (O75030 whole entry): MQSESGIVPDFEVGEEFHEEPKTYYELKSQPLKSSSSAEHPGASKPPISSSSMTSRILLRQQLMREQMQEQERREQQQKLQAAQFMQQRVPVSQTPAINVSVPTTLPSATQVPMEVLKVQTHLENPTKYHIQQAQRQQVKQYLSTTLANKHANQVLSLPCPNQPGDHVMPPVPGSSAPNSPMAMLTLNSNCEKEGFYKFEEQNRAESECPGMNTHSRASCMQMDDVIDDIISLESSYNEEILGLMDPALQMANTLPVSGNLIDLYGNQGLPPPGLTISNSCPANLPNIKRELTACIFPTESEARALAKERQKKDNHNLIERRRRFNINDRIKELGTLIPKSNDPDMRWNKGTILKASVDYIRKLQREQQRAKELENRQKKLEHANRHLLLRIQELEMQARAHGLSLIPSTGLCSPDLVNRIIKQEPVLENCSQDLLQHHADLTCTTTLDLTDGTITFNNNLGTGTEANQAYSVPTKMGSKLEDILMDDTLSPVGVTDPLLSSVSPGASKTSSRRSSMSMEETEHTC
# BJ [9] = test: cells; format: functional, cell-based; settings: Homo sapiens
# BJ [10] = test: cytotoxicity toward BJ-TERT fibroblasts, dose response, cell-based, RAS-independent, luminescence (AID 1933); format: functional; settings: Homo sapiens
# [11] = cytotoxicity toward DRD oncogenic fibroblasts, dose response, cell-based, non-viral oncogenic, luminescence (AID 1934); format: functional; settings: Homo sapiens
# BJ [12] = test: cytotoxicity toward Ras-transformed BJeLR fibroblasts, dose response, cell-based, alamar blue fluorescence, cherrypicked samples (AID 2631); format: functional; settings: Homo sapiens;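 note: confirmatory dose-response assay in RAS-dependent BJ fibroblasts engineered with TERT, LT and ST, with cytotoxicity read by fluorescence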
# BJ [13] = test: cytotoxicity toward BJ-TERT-LT-ST fibroblasts, dose response, cell-based, RAS-independent, luminescence (AID 1935); format: functional; settings: Homo sapiens;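 note: BJ fibroblasts immortalized with TERT plus LT and ST oncogenes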
# INS1 = test: beta cell apoptosis inhibitors, cytokine rescue, dose response, luminescence, retest (AID 449756); format: functional, cell-based; settings: Rattus norvegicus;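 note: cell death triggered by IL-1 beta plus TNF-alpha plus IFN-gamma mixture; protective hits raise ATP signal compared with cytokine alone wells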
# [14] = molecular target: T7, Rac GTPase-activating protein 1 (Homo sapiens, UniProt Q9H0H5); test: MgcRacGAP GTPase-activating activity inhibitors, confirmation, biochemical, ADP Hunter fluorescence, primary and confirmatory (AID 624330); format: functional
# T7 sequence (Q9H0H5 whole entry): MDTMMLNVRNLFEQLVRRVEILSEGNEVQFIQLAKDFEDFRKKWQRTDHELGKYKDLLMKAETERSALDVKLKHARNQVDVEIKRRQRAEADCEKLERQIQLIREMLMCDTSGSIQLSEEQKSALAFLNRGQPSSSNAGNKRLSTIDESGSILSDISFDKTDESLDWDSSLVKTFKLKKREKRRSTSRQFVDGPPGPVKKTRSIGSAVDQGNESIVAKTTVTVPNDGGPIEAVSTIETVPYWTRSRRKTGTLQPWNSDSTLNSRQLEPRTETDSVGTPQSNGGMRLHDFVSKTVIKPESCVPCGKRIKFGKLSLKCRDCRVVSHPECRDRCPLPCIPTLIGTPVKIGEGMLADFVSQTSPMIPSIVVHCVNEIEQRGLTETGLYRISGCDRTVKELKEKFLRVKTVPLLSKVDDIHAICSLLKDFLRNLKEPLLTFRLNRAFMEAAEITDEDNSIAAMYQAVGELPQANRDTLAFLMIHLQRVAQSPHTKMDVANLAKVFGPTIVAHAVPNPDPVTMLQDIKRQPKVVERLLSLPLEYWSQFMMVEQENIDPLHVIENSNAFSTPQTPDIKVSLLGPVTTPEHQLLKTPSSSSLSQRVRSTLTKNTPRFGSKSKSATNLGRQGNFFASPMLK
# [15] = cytotoxicity in HEK-293T NF-kB-Luc cells, dose response, cytotoxicity control for B/T-cell NF-kB inhibitor project, cell-based, uHTS hits (AID 489019); format: functional;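 note: IC50 reflects cytotoxicity as loss of cell viability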
# Large T antigen = Large T antigen (Simian virus 40, UniProt P03070); format: functional, Betapolyomavirus macacae;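 note: Confirmatory-stage PubChem screen for compounds that inhibit SV40 T antigen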
# Jurkat = test: antigen receptor-induced NF-kB inhibitors, dose response, Jurkat, luciferase reporter, luminescence, B- and T-cell (AID 489004); format: functional, cell-based; settings: Homo sapiens;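 note: NF-kB luciferase reporter Jurkat cells stimulated with PMA plus ionomycin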
# Chain of Large T antigen (P03070 whole entry): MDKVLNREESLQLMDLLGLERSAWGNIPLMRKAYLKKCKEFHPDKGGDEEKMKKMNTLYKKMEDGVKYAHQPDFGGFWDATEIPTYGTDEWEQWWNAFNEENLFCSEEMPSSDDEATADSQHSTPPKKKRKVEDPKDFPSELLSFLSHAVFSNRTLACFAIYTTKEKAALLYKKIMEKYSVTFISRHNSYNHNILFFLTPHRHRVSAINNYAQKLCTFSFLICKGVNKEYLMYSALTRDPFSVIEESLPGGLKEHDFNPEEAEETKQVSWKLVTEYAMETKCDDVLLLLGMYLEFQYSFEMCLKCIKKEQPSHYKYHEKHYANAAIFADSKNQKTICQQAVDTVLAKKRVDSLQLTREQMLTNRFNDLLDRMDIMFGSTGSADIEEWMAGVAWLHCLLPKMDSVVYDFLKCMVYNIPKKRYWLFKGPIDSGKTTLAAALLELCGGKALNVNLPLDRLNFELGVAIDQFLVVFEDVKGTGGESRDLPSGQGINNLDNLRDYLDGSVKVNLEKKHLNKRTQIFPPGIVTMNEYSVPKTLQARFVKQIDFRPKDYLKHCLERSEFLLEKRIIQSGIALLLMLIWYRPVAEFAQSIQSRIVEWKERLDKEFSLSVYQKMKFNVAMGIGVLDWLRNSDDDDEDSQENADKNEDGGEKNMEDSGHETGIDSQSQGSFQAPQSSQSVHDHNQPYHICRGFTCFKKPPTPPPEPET
structure (smiles),measurement,setting,value
CCOc1ccc(C(=O)Nc2nnc(SCC(=O)NCC3CCCO3)s2)cc1 (stereo not given),IC50,[1],> 67.5 µM (inactive)
same,AC50,[2],3.43 µM (active)
same,AC50,[3],3.95 µM (active)
same,IC50,cells,> 67.5 µM (inactive)
same,AC50,[4],> 52 µM (inactive)
same,AC50,HEK293,1.52 µM (active)
CC(C)(C)C(=O)OCc1nc(-c2ccc(F)cc2)cs1,IC50,[5],7.4 µM (active)
same,IC50,Caspase-3,28.3 µM (active)
same,IC50,[6],55.3 µM (active)
same,IC50,[7],28.9 µM (active)
Cc1ccc(CNc2c([N+](=O)[O-])nn(-c3ccc4c(c3)OCCO4)[n+]2[O-])cc1,IC50,[5],4.7 µM (active)
same,IC50,Caspase-3,66.5 µM (active)
same,IC50,[6],> 100 µM (inactive)
same,IC50,[7],> 100 µM (inactive)
COc1cc(OC)cc(C(=O)N[C@H](C(=O)Nc2nc3ccccc3[nH]2)C(C)C)c1,AC50,[8],2.44 µM (active)
same,EC50,BJ [9],2.73 µM (active)
same,EC50,BJ [10],1.48 µM (inconclusive)
same,EC50,[11],1.91 µM (active)
same,EC50,BJ [12],0.553 µM (active)
same,EC50,BJ [13],1.51 µM (inconclusive)
CC(=O)Oc1cccc(/C=C2\Sc3ccccc3C2=O)c1,IC50,[5],3.15 µM (active)
same,IC50,Caspase-3,24.9 µM (active)
same,IC50,[6],3.32 µM (active)
same,IC50,[7],3.99 µM (active)
O=S(=O)(c1ccc(NC(=S)NCc2cccnc2)cc1)N1CCCCC1,AC50,INS1,1.11 µM (active)
same,EC50,BJ [9],0.594 µM (inconclusive)
same,EC50,BJ [10],> 150 µM (not active)
same,EC50,[11],20.5 µM (active)
same,EC50,BJ [12],0.623 µM (active)
same,EC50,BJ [13],0.767 µM (active)
COc1cc(/C=N/NC(=S)Nc2cccc(C(=O)O)c2)ccc1O,IC50,[14],44.9 µM (active)
same,IC50,[15],> 80 µM (inactive)
same,AC50,HEK293,1.9 µM (active)
same,IC50,Large T antigen,22.1 µM (active)
same,IC50,Jurkat,7.92 µM (active)
